Columns and labels:
[1] = system: mouse tumors; experiment: CEST MRI of tumor-bearing animals before and after sucralose injection; assay type: in vivo; conditions: tumor region; sucralose 100 mM intra peritoneally; at 40 minutes; vs baseline
Experimental: (§1) Different concentration of Splenda and sucralose were prepared in PBS and all the experiments were performed at 37° C. on a 9.4 T horizontal bore small animal MR scanner (Varian, Palo Alto, CA). CEST images were acquired at different saturation power and saturation lengths from frequency offset −5 to 5 ppm in step size of 0.1 ppm. Acquired CEST images were corrected for B0 and used to generate CEST contrast map using Equation [1].
(§2) [formula] where S−ve and S+ve are the B0 corrected MRI signals obtained at −1 ppm and +1 ppm respectively, and S0 is the image obtained without any saturation. CEST contrast was further corrected for B1 and mapped as false-colors onto anatomical proton image. The CEST asymmetry plots were generated by plotting the relative water signal difference at frequency offset from 0 to 4.8 ppm. • FIG. 1: Z-spectra (A), asymmetry plot (B), and CEST map (C) of CEST effect from 0.5% Splenda. […]
(§3) Imaging was performed in tumor-bearing animals at a 9.4 T horizontal bore Varian system. […] Respiration and body temperature were continuously monitored using a MRI-compatible small animal monitor system (SA Instruments, Inc., Stony Brook, NY). CEST imaging was performed using a custom-programmed, segmented radiofrequency GRE readout pulse sequence, with a frequency selective continuous wave saturation preparation pulse. […]

[2] = system: rat brain tumor; experiment: SWEETEST (CEST) MRI, sucralose injection studies in a rat brain tumor; assay type: in vivo; conditions: sucralose 300 mM via tail vein, 40 minute post injection, vs baseline
Experimental: as §1, §2, §3

## OC[C@H]1O[C@H](O[C@]2(CCl)O[C@H](CCl)[C@@H](O)[C@@H]2O)[C@H](O)[C@@H](O)[C@H]1Cl [sucralose]
[1]
  percent change in the contrast post injection of sucralose: about 100%
[2]
  increase in SWEETEST contrast: ~80%
